The values below come from patent US20150050240A1, “TREATMENT OF FIBROSIS” (NOVARTIS AG, priority 2012, published 2015).

The test system of data set [1] is lung fibroblasts from IPF patients. The note with it: cited from earlier work.
The conditions of data set [2]: cited from earlier work.
For data set [3], the system named is primary human lung fibroblasts (HLFs). Briefly: Fibroblast-to-myofibroblast transition (FMT), western blot for SMA. The data set is classed as cell-based. The protocol:
Primary human lung fibroblasts (Promocell) were maintained in DMEM supplemented with 10% heat-inactivated FBS, 1 mM Na-pyruvate and 1% Penicillin/Streptomycin and trypsinised every 4 days. Sub-confluent HLFs were electroporated via nucleofection (Amaxa electroporation system) with siRNAs.
(§1) HLFs, IPF donor cells, A549 cells lysates or lung tissue lysates were prepared in RIPA buffer. The patient lung biopsies study utilized biological specimens and data provided by the Lung Tissue Research Consortium (LTRC) supported by the National Heart, Lung, and Blood Institute (NHLBI). For Western blots, 1:1000-diluted mouse-anti-N-Cadherin (BD Biosciences), rabbit-anti-OB-Cadherin (Santa Cruz), mouse-anti-SMA (Sigma), mouse-anti-vimetin (DACO), mouse-anti-E-Cadherin (Abram), rabbit-anti-β-catenin (Cell Signaling Technology), anti-rabbit-p-[…]-β-catenin (Cell Signaling Technology), rabbit-anti-β-actin (Santa Cruz) and mouse-anti-GAPDH (Santa Cruz) were used in combination with HRP-conjugated secondary antibodies (GE Healthcare). Western blots were developed using an ECL system (GE Healthcare). Quantification of the intensity of the bands was performed using NIH ImageJ software.
To assess functional responses, non-transfected HLFs or HLFs transfected with siRNAs were plated in full growth medium and left to grow overnight, starved for 24 h in serum-free medium and stimulated with different growth factors for a further 24 h. For FMT assessment, the HLF cells were stimulated with 5 ng/ml TGFβ (R&D Systems) or 10 μg/ml human N-Cadherin-Fc (R&D Systems), for collagen secretion—with 1 ng/ml TGFβ, for proliferation—with FBS, 10 ng/ml PDGF-BB (R&D Systems) or 10 ng/ml FGF-2 (R&D Systems) and for migration—with 10 μg/ml human N-Cadherin-Fc (R&D Systems) or human OB-Cadherin-Fc (R&D Systems). […] The level of FMT was evaluated by western blot for SMA. Collagen secretion was measured by Sircol collagen assay (Biocolor Life Science). Proliferation assay was performed using the DELFIA system (PerkinElmer), and migration was assessed with the Oris System (Platypus Technology).
(In general: Immunoblotting shows a protein as a band on a membrane.)

Another data set relates to β-catenin. Description: Western blots for p-Ser552 β-catenin and total β-catenin from HLFs. The format is cell-based, human. The note with it: HLFs stimulated with TGFβ; FIG. 4A. The protocol:
as §1
To assess the regulation of β-catenin in response to a fibrotic stimulus in HLFs, cells were stimulated with TGFβ and the expression levels and phosphorylation state of β-catenin were assessed by Western blot (FIG. 4A). There was no difference in the expression levels of total β-catenin in TGFβ-stimulated cells. However, when the cell lysates were probed with a phospho-specific β-catenin antibody, we found an increase in the phosphorylation of Ser552 upon TGFβ treatment. […]

The subject of another data set is N-Cadherin. Briefly: N-Cadherin expression in HLFs (RT-PCR, western blot). The format is cell-based, human. The following applies: TGFβ treatment, low and high cell density; FIG. 1A. The protocol: (§2) Total RNA was extracted from HLFs, transcribed into cDNA and used for RT-PCR. Validated Taqman N-Cadherin, OB-Cadherin, vimentin or E-Cadherin primers and probes were purchased from Applied Biosystems.
(§3) Small interfering RNAs against N-Cadehrin and OB-Cadherin were purchased from Applied Biosystems. Knockdown efficiencies were tested by using real-time RT-PCR and confirmed to be 95% at the time of stimulation in the different functional assays.
as §1

The test system of the next data set is OB-Cadherin. Briefly: OB-Cadherin expression in HLFs (RT-PCR, western blot). The following applies: TGFβ treatment of HLFs; FIG. 1A. The data set is classed as cell-based, human. The protocol:
as §2, §3, §1

The conditions of data set [4]: cited from earlier work. The source holds these as a separate data set.
The subject of data set [5] is primary human lung fibroblasts (HLFs). Briefly: HLF migration, in vitro wound closure assay (Oris System). The following applies: 10 μg/ml N-Cadherin-Fc; FIG. 3A. The format is cell-based. The protocol: To assess functional responses, non-transfected HLFs or HLFs transfected with siRNAs were plated in full growth medium and left to grow overnight, starved for 24 h in serum-free medium and stimulated with different growth factors for a further 24 h. For FMT assessment, the HLF cells were stimulated with 5 ng/ml TGFβ (R&D Systems) or 10 μg/ml human N-Cadherin-Fc (R&D Systems), for collagen secretion—with 1 ng/ml TGFβ, for proliferation—with FBS, 10 ng/ml PDGF-BB (R&D Systems) or 10 ng/ml FGF-2 (R&D Systems) and for migration—with 10 μg/ml human N-Cadherin-Fc (R&D Systems) or human OB-Cadherin-Fc (R&D Systems). In the loss of function FMT experiment, 50 μg/ml N-Cadherin neutralizing antibody (clone GC-4, Sigma) was used. The level of FMT was evaluated by western blot for SMA. Collagen secretion was measured by Sircol collagen assay (Biocolor Life Science). Proliferation assay was performed using the DELFIA system (PerkinElmer), and migration was assessed with the Oris System (Platypus Technology).
Increased migration is a hallmark of myofibroblasts and is thought to contribute to the pathology of IPF. Therefore, we investigated the effects of N-Cadherin gain- and loss-of function on the migratory potential of HLFs. We performed an in vitro wound closure assay with cells treated with the recombinant N-Cadherin-Fc chimera or with N-Cadherin siRNA.

The test system of data set [6] is A549 epithelial alveolar type II cells. Briefly: Epithelial-to-mesenchymal transition (EMT) in A549 cells (RT-PCR, western blot, E-Cadherin immunocytochemistry). The format is cell-based, human. The note with it: recombinant N-Cadherin-Fc, immunocytochemistry for E-Cadherin. Here is the method:
A549 epithelial alveolar type II cells (ATCC) were maintained in DMEM supplemented with 10% heat-inactivated FBS and 1% Penicillin/Streptomycin and trypsinised every 4 days.
For EMT assessment, A549 cells were simulated with 5 ng/ml TGFβ (R&D Systems), a combination of 5 ng/ml TGFβ (R&D Systems) and 2.5 ng/ml IL-1β (R&D Systems) or N-Cadherin-Fc (R&D Systems). The level of EMT was evaluated either by RT-PCR and Western blot for vimentin and E-Cadheirn or by immunocytochemistry for E-Cadherin. In the loss of function EMT experiment, N-Cadherin neutralizing tool antibody or IgG isotype control were used in the presence of 18 μg/ml N-cadheirn-Fc (R&D Systems).

Setting [7] is: phase II trial with IPF patients.
[8] abbreviates: more recent clinical trial, discontinued in 2007.

Take `Cc1ccc(=O)n(-c2ccccc2)c1` [Pirfenidone]: in data set [1], the collagen synthesis entry is “reduces collagen synthesis” and the “mitogenic effects of pro-fibrotic cytokines” value is “blocks mitogenic effects”. In [2] (setting [7]), the chest radiographs result is “did not improve”, the pulmonary functional tests entry is “stabilized or improved in some patients”, the side effects entry is on record as “no severe side effects” and the survival rates entry is reported as “improved”. For the same molecule, the lung function result in data set [2] (phase III clinical trial, IPF patients) was “might positively affect lung function”.

Turning to “TGFβ: TGFβ (R&D Systems), pro-fibrotic stimulus used to induce FMT”, in [3] (TGFβ stimulation, low and high cell density), the SMA expression result is “marked increase”. Also, in the data set with β-catenin, the “expression levels of total β-catenin” value is “no difference” and the “phosphorylation of Ser552 of β-catenin” value is recorded as “increase”. In addition, in the data set on N-Cadherin, the N-Cadherin expression result is “upregulated”. The OB-Cadherin expression result with OB-Cadherin was “upregulated”.

interferon: in data set [4] (IPF patients refractory to corticosteroid or immunosuppressive therapy), the clinical improvement result is recorded as “showed no improvement”. Moreover, in data set [4] (setting [8]), the clinical trial outcome is listed as “ineffectiveness” and the “patients death rates compared with placebo” value is “slightly increased”.

B1: N-Cadherin-Fc: human N-Cadherin-Fc fusion protein (R&D Systems) that mimics N-Cadherin homophilic interactions and activates N-Cadherin signalling (protein)
chain: DWVIPPINLPENSRGPFPQELVRIRSDRDKNLSLRYSVTGPGADQPPTGIFIINPISGQLSVTKPLDREQIARFHLRAHAVDINGNQVENPIDIVINVIDMNDNRPEFLHQVWNGTVPEGSKPGTYVMTVTAIDADDPNALNGMLRYRIVSQAPSTPSPNMFTINNETGDIITVAAGLDREKVQQYTLIIQATDMEGNPTYGLSNTATAVITVTDVNDNPPEFTAMTFYGEVPENRVDIIVANLTVTDKDQPHTPAWNAVYRISGGDPTGRFAIQTDPNSNDGLVTVVKPIDFETNRMFVLTVAAENQVPLAKGIQHPPQSTATVSVTVIDVNENPYFAPNPKIIRQEEGLHAGTMLTTFTAQDPDRYMQQNIRYTKLSDPANWLKIDPVNGQITTIAVLDRESPNVKNNIYNATFLASDNGIPPMSGTGTLQIYLLDINDNAPQVLPQEAETCETPDPNSINITALDYDIDPNAGPFAFDLPLSPVTIKRNWTITRLNGDFAQLNLKIKFLEAGIYEVPIIITDSGNPPKSNISILRVKVCQCDSNGDCTDVDRIVGAGLGTGA
modifications: left off: a dimerising Fc or GST
Turning to B1, the SMA expression entry in data set [3] (HLFs treated with 10 μg/ml N-Cadherin-Fc for 24 h, FIG. 2A) is listed as “significant increase”. Moreover, the “additive or synergistic effect on SMA expression” value in data set [3] (combination of TGFβ and N-Cadherin-Fc, 24 h) was “did not observe an additive or synergistic effect”. Also, the “HLF migration into the wound” value in data set [5] is given as “significant increase”. The “EMT, measured by decreased E-Cadherin signal” value in data set [6] was “significant EMT”.
